Results reported in US4109088A, “2-(Indenyloxymethyl) morpholine derivatives” (priority 1975, dated 1978).
Counter-ions that a name gives are not always drawn.

Assays:
[1] = tested on: methamphetamine-induced stereotyped behavior; experiment: Potentiation of methamphetamine-induced stereotyped behavior in rats (Experiment 1); assay type: in vivo, rats (male Wistar strain, aged 6 weeks); settings: for minimal effective dose: Rattus norvegicus, read-out: minimum effective dose causing statistically significant potentiation of the methamphetamine-induced stereotype; for minimum effective dose causing statistically significant potentiation of the methamphetamine-induced stereotype: i.p., 1 hour before methamphetamine 5 mg/Kg i.p., rats observed every 30 minutes until 5 hours
Protocol: The rats were placed in separate plastic cages for 1 hour to be accustomed to the experimental conditions, then the tested compounds were given intraperitoneally followed after 1 hour by an intraperitoneal application of methamphetamine (5 mg/Kg).

[2] = Pharmacological activity of the isolated isomer salts (general statement); assay type: in vivo; settings: statement in words
[3] = tested on: reserpine induced ptoses and hypothermia; experiment: Competitive effects on reserpine induced ptoses and hypothermia in mice (Experiment 3); assay type: in vivo, mice (male ICR-JCL strain weighing 25-35 g); settings: 10 mg/Kg, p.c. (so in the source), simultaneously with reserpine 2 mg/Kg i.p.; scored 0.5-6 hours; 10 mice
Protocol: The tested compound (10 mg/Kg, p.c.) and reserpine (2 mg/Kg, i.p.) were applied simultaneously to the mice and the degree of ptosis was scored according to the method of Ruben et al. (J. Pharmacol. Exptl. Ther., 120, 125, 1957) at 0.5, 1, 2, 3, 4, 5 and 6 hours after dosages, respectively.
Rectal temperature of the mice were also measured together with those of non-reserpinized mice. Inhibitory percent of the degree of ptosis and differences between rectal temperatures of reserpinized and non-reserpinized mice due to the tested compound are shown in the following Table. For each experiment 10 mice were used.

in vivo = settings: mouse, po, male, 25-35 g
From the text: Acute toxicity (ICR-JCR strain, male, weighing 25-35 g, p.o.)

[4] = tested on: methamphetamine-induced stereotyped behavior; experiment: Methamphetamine-induced stereotyped behavior in rats (Experiment 6); assay type: in vivo, rats (male Wistar strain, aged 8 weeks)
Protocol: Effects of the compounds on methamphetamine-induced stereotyped behavior in rats (male Wistar strain, aged 8 weeks) were examined according to the method of Ueki et al. (Folia Pharmacologica Japonica, 68, 716, 1972).
The rats were placed in separate plastic cages for 1 hour to be accustomed to the experimental conditions and then the tested compounds were given intraperitoneally followed, after 1 hour, by an intraperitoneal application of methamphetamine (5 mg/kg). The influence of the tested compounds on the agitated behavior of the rats were observed every 30 minutes till 5 hours thereafter.

[5] = tested on: reserpine-induced hypothermia; experiment: Reserpine-induced hypothermia in mice (Experiment 7); settings: p.o.

Compound: CC1=CCc2cccc(OCC3CN(C(C)C)CCO3)c21 (stereo not shown) [Example 12B, 4-isopropyl-2-(3-methyl-4-indenyloxymethyl)morpholine]
- minimal effective dose [1]: 0.3 mg/kg

Compound: C1=Cc2cccc(OCC3CNCCO3)c2C1 (stereo not drawn) [7-isomer acid addition salt, acid addition salt of 2-(7-indenyloxymethyl) morpholine]
- pharmacological activity compared with the 4-isomer acid addition salt [2]: more preferable pharmacological activity than the 4-isomer acid addition salt

Compound: CC1=CCc2c(OCC3CNCCO3)cccc21 (stereo not shown) [Example 11, 2-(3-methyl-7-indenyloxymethyl)morpholine]
- minimal effective dose [1]: 0.3 mg/kg

Compound: CN(C)CCC=C1c2ccccc2CCc2ccccc21 [Amitriptyline, reference compound]
- minimal effective dose [1]: 10 mg/kg

Compound: CC(C)N1CCOC(COc2cccc3c2CC=C3)C1 (stereo not shown) [Example 1, 4-isopropyl-2-(7-indenyloxymethyl)morpholine]
- Inhibition of ptosis (%) [3]: 14.5%
- LD50 (in vivo): 650 mg/kg
- minimal effective dose [1]: 0.3 mg/kg

Compound: CCCN1CCOC(COc2cccc3c2CC=C3)C1 (stereo not shown) [Example 6, 2-(7-indenyloxymethyl)-4-propylmorpholine]
- minimal effective dose [1]: 1 mg/kg

Compound: mixture of 2-(4-indenyloxymethyl)morpholine and 2-(7-indenyloxymethyl) morpholine [Example 10]
- minimum effective dose causing statistically significant potentiation of the methamphetamine-induced stereotype [1]: 0.3 mg/kg

Compound: C1=Cc2c(cccc2OCC2CNCCO2)C1.Cl (stereo not shown) [2-(4-indenyloxymethyl)-morpholine hydrochloride]
- ED50 ([4]; Rattus norvegicus, ip, 1 hour before methamphetamine 5 mg/kg i.p.): 5 mg/kg

Compound: C1=Cc2cccc(OCC3CNCCO3)c2C1.Cl (stereo not shown) [2-(7-indenyloxymethyl)morpholine hydrochloride]
- relative potency vs 2-(4-indenyloxymethyl) morpholine hydrochloride ([4]; ratio of ED50, i.p.): 2.5 times
- potency compared with 2-(4-indenyloxymethyl) morpholine hydrochloride [5]: more potent than the latter

Compound: CC(C)N1CCOC(COc2cccc3c2CCC3)C1 (stereo not shown) [Compound C, 2-(4-indanyloxymethyl)-4-isopropyl morpholine, reference compound]
- minimum effective dose causing statistically significant potentiation of the methamphetamine-induced stereotype [1]: non effective

Compound: CCOc1ccccc1OCC1CNCCO1 (stereo not shown) [Viloxazine HCl, 2-(2-ethoxyphenoxymethyl) morpholine, reference compound]
- Inhibition of ptosis (%) [3]: 6.0%
- minimum effective dose causing statistically significant potentiation of the methamphetamine-induced stereotype [1]: non effective

Compound: CCN1CCOC(COc2cccc3c2CC=C3)C1 (stereo not shown) [Example 5, 4-ethyl-2-(7-indenyloxymethyl)morpholine]
- LD50 (in vivo): 700 mg/kg
- minimal effective dose [1]: 0.3 mg/kg

Compound: CCCCN1CCOC(COc2cccc3c2CC=C3)C1 (stereo not shown) [Example 2, 4-butyl-2-(7-indenyloxymethyl)-morpholine]
- minimal effective dose [1]: 3 mg/kg

Compound: CC1=CCc2c(OCC3CN(C(C)C)CCO3)cccc21 (stereo not shown) [Example 12A, 4-isopropyl-2-(3-methyl-7-indenyloxymethyl)morpholine]
- minimal effective dose [1]: 0.03 mg/kg
